Results reported in paper PMC11679033, “Assessing the Potential Synergistic/Antagonistic Effects of Citrinin and Cannabidiol on SH-SY5Y, HepG2, HEK293 Cell Lines, and Human Lymphocytes” (Toxins, 2024).
Values joined by “and” are separate entries in the source; they are usually repeats but may differ in a detail not shown here. Equal entries are not always repeated.

How the values were obtained:
[1] = MTS viability assay, HEK293; format: cell-based, human; details: human, HEK293 cells; HEK293, 24 h exposure, MTS; read-out: IC50 (cytotoxicity)
Experimental: (§1) Human neuroblastoma SH-SY5Y cells (ECACC 94030304), human hepatocyte carcinoma HepG2 (ECACC 85011430) and human embryonic kidney HEK293 (ECACC 85120602) used in the experiments were obtained from the European Collection of Authenticated Cell Cultures (ECACC) through Sigma-Aldrich (Steinheim, Germany). SH-SY5Y cells were grown in Dulbecco’s Modified Eagle’s Medium F12 containing 15% (v/v) fetal bovine serum (FBS), 2 mM glutamine, 1% (v/v) penicillin/streptomycin (PenStrep solution), and 1% (v/v) non-essential amino acids (NEAA solution). HEK293 and HepG2 cells were grown in EMEM medium (Sigma-Aldrich, Steinheim, Germany) supplemented with 10% (v/v) FBS, 2 mM glutamine, 1% (v/v) PenStrep and 1% (v/v) NEAA. All media and supplements were purchased from Sigma-Aldrich, Steinheim, Germany. Cells were cultured at 37 °C in a 5% CO2 atmosphere, the medium was changed every two days, and passage was carried out according to the manufacturer’s protocol.
(§2) MTS assay (CellTiter 96® AQueous One Solution Cell Proliferation Assay, Promega, Madison, WI, USA) was used to determine the viability of cells/cytotoxic properties of tested compounds by measuring cells’ mitochondrial succinate dehydrogenase activity. The procedure followed a previously described protocol. In brief, the cells were seeded in transparent 96-well plates at a density of 20,000 cells/well one day before the experiment and treated with tested compounds in concentrations: 0.01, 0.1, 0.5, 1, 2, 5, 10, 25, 50, 100 and 300 µM. Triton X-100 at a final concentration of 0.18% (v/v) (stock of 9% in water; Sigma-Aldrich, Steinheim, Germany) was used as a positive control. After 24 h, treatment with tested compounds and incubation with MTS reagent, the absorbance was read at 492 nm on an Infinite M200PRO (Tecan Group Ltd., Männedorf, Switzerland) plate reader. Data were taken from at least three independent experiments (each treatment performed in duplicate or triplicate) and expressed as percentages (mean ± standard error) of viable cells compared to control (untreated) cells. IC50 values were determined by a nonlinear fit equation predefined in Prism software 8 (GraphPad Software, San Diego, CA, USA).
(§3) The same method was used to evaluate a potential toxic synergistic effect on cells exposed to a combination of CBD and CIT at approximately LOAEL doses (lowest observed adverse effect level, 1 and 30 μM for SH-SY5Y and HepG2, and 2 and 0.05 μM for HEK293, respectively). There is no official recommendation for CBD oral use, but according to the available literature, we used a dose that corresponded to daily intake, which was 10 mg/kg/day (calculated on a person of 70 kg ~ 1 μM). These selected LOAEL concentrations were used for all other assays as well.

[2] = tested on: HEK293 cells; assay: MTS viability assay, HEK293; format: cell-based, human; details: HEK293, 24 h; for cell viability at LOAEL concentrations: CBD 2 μM, CIT 0.05 μM, alone or combined
Experimental: as §1, §2, §3

[3] = tested on: HepG2 cells; details: cited from earlier work
[4] = tested on: HEK293 cells; parameters: method as in PMID 13678658; details: HEK293, concentrations ≤60 μM for 24 h; cited from earlier work
[5] = tested on: SH-SY5Y cells; assay: MTS viability assay, SH-SY5Y; format: cell-based, human; details: for IC20: Homo sapiens, established on SH-SY5Y and HepG2 cell models, read-out: IC20 concentration; for lowest observed adverse effect level (LOAEL), approximate / cell viability at LOAEL concentrations: SH-SY5Y, 24 h; for cell viability at LOAEL concentrations: CBD 1 μM, CIT 30 μM, alone or combined
Experimental: as §1, §2, §3

[6] = MTS viability assay, SH-SY5Y; format: cell-based, human; details: human, SH-SY5Y cells; SH-SY5Y, 24 h exposure, MTS; read-out: IC50 (cytotoxicity)
Experimental: as §1, §2, §3

[7] = tested on: cultured human lymphocytes; parameters: method as in PMID 17265422; details: 48 h exposure, 60–100 μM; cited from earlier work
[8] = tested on: HEK293 cells; assay: Cell membrane integrity (LDH release), HEK293; format: cell-based, human; details: HEK293, 24 h; CBD 2 μM, CIT 0.05 μM, alone or combined
Experimental: (§4) Cell membrane integrity was determined after exposure to compounds’ concentrations corresponding to LOAEL concentrations in 24 h by measuring the release of the intracellular lactate dehydrogenase (LDH) and the procedure followed a previously described protocol using The CytoTox-ONE™ Homogeneous Membrane Integrity Assay (Promega, Madison, WI, USA). In short, the cells were seeded in black 96-well plates at a density of 10,000 cells/well one day before the experiment and treated with selected LOAEL concentrations. Triton X-100 at a final concentration of 0.18% (v/v) (stock of 9% in water) was used as a positive control to determine the maximal LDH release. Data were taken from at least two independent experiments (each treatment performed in duplicate or triplicate) and plotted as a percentage of LDH release compared to the determined maximal LDH release, according to the manufacturer’s calculation protocol.

[9] = tested on: A549 cells; parameters: method as in PMID 39057961; details: A549, 24 h, sub-IC50 and near IC50 concentrations; cited from earlier work
[10] = tested on: HepG2 cells; assay: MTS viability assay, HepG2; format: cell-based, human; details: for lowest observed adverse effect level (LOAEL), approximate / cell viability at LOAEL concentrations: HepG2, 24 h; for cell viability at LOAEL concentrations: CBD 1 μM, CIT 30 μM, alone or combined
Experimental: as §1, §2, §3

[11] = MTS viability assay, HepG2; format: cell-based, human; details: human, HepG2 cells; HepG2, 24 h exposure, MTS; read-out: IC50 (cytotoxicity)
Experimental: as §1, §2, §3

[12] = tested on: HepG2 cells; assay: Cell membrane integrity (LDH release), HepG2; format: cell-based, human; details: HepG2, 24 h; CBD 1 μM, CIT 30 μM, alone or combined
Experimental: as §4

[13] = tested on: buccal-derived cells (TR146); parameters: method as in PMID 30341733; details: cited from earlier work
[14] = tested on: human liver cell line (HepG2); parameters: method as in PMID 30341733; details: cited from earlier work
[15] = parameters: method as in PMID 38908200; details: 24 h exposure to CBD samples; cited from earlier work
[16] = tested on: human TK6 cells; parameters: method as in PMID 37105391; details: up to 10–11 μg/mL, with and without metabolic activation; cited from earlier work

CC1=C2C(=CO[C@H](C)[C@H]2C)C(O)=C(C(=O)O)C1=O [CIT, citrinin]
IC50 at 24 h [1]: 0.44 ± 0.02 µM | IC50 fold lower than that of CBD [2]: 11 fold | lowest observed adverse effect level (LOAEL), approximate [2]: ~0.05 µM | cell viability at LOAEL concentrations [2]: did not independently impact cell viability | DNA damage in comet assay ([3]; HepG2, 24 h, sub-IC50 and near IC50 concentrations): induced significant DNA damage | genotoxicity in comet assay ([3]; HepG2): no significant genotoxicity | toxic effect in Fpg-modified comet assay [4]: did not show toxic effect | IC20 [5]: 30 µM and 7.5 µg/mL | lowest observed adverse effect level (LOAEL), approximate [5]: ~30 µM | cell viability at LOAEL concentrations [5]: did not independently impact cell viability | IC50 at 24 h [6]: 52 ± 8 µM | induction of MNi vs negative controls [7]: significant induction of MNi | cell membrane integrity (LDH release) [8]: not significantly compromised | DNA damage in comet assay [9]: induced significant DNA damage | lowest observed adverse effect level (LOAEL), approximate [10]: ~30 µM | cell viability at LOAEL concentrations [10]: did not independently impact cell viability | IC50 at 24 h [11]: 59 ± 9 µM | cell membrane integrity (LDH release) [12]: not significantly compromised

C=C(C)[C@@H]1CCC(C)=C[C@H]1c1c(O)cc(CCCCC)cc1O [CBD, cannabidiol]
IC50 at 24 h [1]: 5 ± 1 µM | lowest observed adverse effect level (LOAEL), approximate [2]: ~2 µM | cell viability at LOAEL concentrations [2]: did not independently impact cell viability | level above which damage was found in MN assay [13]: above 0.2 µM | level above which damage was found in MN assay [14]: above 0.2 µM | genomic instability estimated by CBMN Cyt Assay [15]: no changes in genomic instability | genotoxic hazard [16]: did not pose a genotoxic hazard | IC20 [5]: 1 µM and 3.15 µg/mL | lowest observed adverse effect level (LOAEL), approximate [5]: ~ 1 μM | cell viability at LOAEL concentrations [5]: did not independently impact cell viability | IC50 at 24 h [6]: 13 ± 2 µM | cell membrane integrity (LDH release) [8]: not significantly compromised | lowest observed adverse effect level (LOAEL), approximate [10]: ~ 1 μM | cell viability at LOAEL concentrations [10]: did not independently impact cell viability | cytotoxicity fold higher than CIT ([10]; in both HepG2 and SH-SY5Y, 24 h): 1.5- to 4 fold | IC50 at 24 h [11]: 40 ± 7 µM | cell membrane integrity (LDH release) [12]: not significantly compromised
